According to US6117875A, “Pyrido (2,3-B) pyrazine derivatives” (Fujisawa Pharmaceutical Co., Ltd., priority 1995, dated 2000):

Experiments:
[1] = target: U937 phosphodiesterase IV (PDE IV); assay: Inhibition of U937 phosphodiesterase IV (PDE IV); assay type: biochemical; settings: PDE IV preparation from U937 cells, [3H]-cAMP, 10 μM CI-930 (PDE III inhibitor) present, 30°C, pH 8.0
Procedure: Harvested U937 was freezed in -80pbC. and throwed to destroy the cell body. The pellet of destroyed cell was washed by Phosphate-buffered saline (PBS).
The washed cell pellet was homogenized with Dounce homogenizer (20 strokes) in homogenizing buffer (0.5% deoxycholate [DOC], 5 mM 2-mercaptoethanol, 1 μM leupeptin, 100 μM PMSF, 20 μM p-tosyl-L-lysine-chloromethyl ketone [TLCK] in PBS). The homogenate was centrifuged at 100,000 g×90 minutes (4pbC.) and the supernatant containing PDE IV activity was dialyzed against dialysis buffer, which was the same component as homogenizing buffer without DOC. The dialyzed supernatant of homogenate was stored in freezer (-80pbC.) as PDE IV enzyme preparation.
Enzyme preparation was diluted in assay buffer (10 mM Tris-HCl, 5 mM MgCl, 1 mM 2-Mercaptoethanol [pH 8.0]). In advance the rate of dilution was choosen every new lot of homogenizing preparation. For blank, a part of the enzyme preparation was boiled for 10 minutes. […]
The reaction tube was preincubated in a water bath (30pbC.) for 5 minutes, then 100 μl [^3 H]-cAMP (37.0 MBq/ml [^3 H]-cAMP: 4 μM cold cAMP=1:800) was added thereto. […] The mixture was centrifuged at 1000 rpm×5 minutes, and then 500 μl of the supernatant was added to 10 ml scintillation fluid in appropriate vial, vortexed, and counted for [^3 H].
The inhibitory activity was calculated according to the following equation: [formula]

[2] = test system: TNF-α production in human mononuclear cells; assay: Inhibition on TNF-α production in human mononuclear cells; assay type: cell-based; settings: TNF-α by ELISA, human MNC, 1 μg/ml LPS (E. coli), 37°C, 16 hours
Procedure: Blood was drawn from healthy volunteers with heparin. The mononuclear cell (MNC) fraction was obtained by gradient centrifugation (1800 rpm, 15 minutes), diluted with the same volume of RPMI-1640 culture medium, over Ficoll-Paque (Pharmacia LKB Biotechnology). MNC were washed twice with RPMI-1640. Then, MNC were resuspended in RPMI-1640 culture medium supplemented with 2 mM L-glutamine and 1% fetal bovine serum. MNC were incubated at 37pbC. for 16 hours in 96-well micro culture plate at a concentration of 3×10^5 cells/well with or without 1 μg/ml lipopolysaccharide (LPS) (from E. coli) and various amounts of test compound. At the end of incubation, the supernatant was obtained and its TNF-α active was measured by enzyme-linked immunosorbent assay (ELISA). ELISA was performed with TNF-α ELISA kit (Otsuka Pharmaceutical Co., Ltd.).

IC50 [1]: 16 nM
IC50 [2]: 24 nM
SMILES: CC(=O)Nc1ccc(/C=C/C(=O)Nc2cccc(-c3cccc(-n4c(=O)c(Cc5cccnc5)nc5cccnc54)c3)c2)cn1 [Test compound (a), 4-[3-[3-[(E)-3-(6-acetamido-3-pyridyl)acryloylamino]phenyl]phenyl]-2-(3-pyridylmethyl)-3-oxo-3,4-dihydropyrido[2,3-b]pyrazine]
